By Kd is commonly meant the constant that tells how readily two partners part at equilibrium.

The values below come from ChEMBL document CHEMBL1153583, “Organocatalytic synthesis and sterol 14alpha-demethylase binding interactions of enantioriched 3-(1H-1,2,4-triazol-1-yl)butyl benzoates” (Bioorg Med Chem Lett, 2009).

SMILES strings stand for the structures.

The test is described as follows: Binding affinity to Penicillium digitatum CYP51 expressed in Escherichia coli by UV-visible spectrophotometry.
On to `Cc1ccc(C(=O)OCC[C@@H](C)n2cncn2)cc1`, for which the Kd came out at 0.338 µM.
Under `C[C@H](CCOC(=O)c1ccccc1)n1cncn1` stands 1.62 µM; under `C[C@@H](CCOC(=O)c1cccc(Cl)c1)n1cncn1`, 0.472 µM.
On to `C[C@H](CCOC(=O)c1ccc(Cl)cc1)n1cncn1`, for which the Kd was 0.682 µM.
Compound `C[C@@H](CCOC(=O)c1ccccc1)n1cncn1` registered a Kd of 1.42 µM.
As for `C[C@@H](CCOC(=O)c1ccccc1Cl)n1cncn1`, the figure is 0.56 µM; as for `C[C@@H](CCOC(=O)c1ccc(Cl)cc1)n1cncn1`, 0.988 µM; as for `Cc1ccc(C(=O)OCC[C@H](C)n2cncn2)cc1`, 10.5 µM.
`C[C@H](CCOC(=O)c1cccc(Cl)c1)n1cncn1` registered a Kd of 2.36 µM.
Take `C[C@@H](CCOC(=O)c1ccc(Cl)cc1Cl)n1cncn1`: the Kd worked out at 0.452 µM.
Under `C[C@H](CCOC(=O)c1ccccc1Cl)n1cncn1` stands 0.58 µM; under `CC(CCOC(=O)c1ccccc1)n1cncn1` (racemic), 1.18 µM.
As for `CC(CCOC(=O)c1cccc(Cl)c1)n1cncn1` (racemic), the figure is 0.743 µM; as for `CC(CCOC(=O)c1ccc(Cl)cc1Cl)n1cncn1` (racemic), 0.973 µM.
Under `CC(CCOC(=O)c1ccccc1Cl)n1cncn1` (racemic) stands 1.12 µM.
For the compound `CC(CCOC(=O)c1ccc(Cl)cc1)n1cncn1` (racemic), the Kd came to 1.38 µM.
As for `Cc1ccc(C(=O)OCCC(C)n2cncn2)cc1` (racemic), the figure is 1.74 µM.
As for `CC(C)(C)C(O)/C(=C/c1ccc(Cl)cc1Cl)n1cncn1` (centres undefined) [DINICONAZOLE], the figure is 0.247 µM; as for `CC(C)(C)C(=O)C(Oc1ccc(Cl)cc1)n1cncn1` (centres undefined) [TRIADIMEFON], 0.935 µM.
